PMC4300089, “Structure-Guided Design of Selective Epac1 and Epac2 Agonists” (PLoS Biology, 2015)

Key:
Epac2^Δ280 = biological target: T1, Epac2^Δ280 (Mus musculus, UniProt Q9EQZ6); assay: Epac activation assay (Rap1B•mGDP fluorescence nucleotide exchange), Epac2^Δ280; format: biochemical; conditions: for AC50 / Rel. kmax: Epac2^Δ280; for Rel. kmax: maximal activity relative to cAMP
T1 construct: made in house
T1 sequence (Q9EQZ6 281-993 isoform Q9EQZ6-3): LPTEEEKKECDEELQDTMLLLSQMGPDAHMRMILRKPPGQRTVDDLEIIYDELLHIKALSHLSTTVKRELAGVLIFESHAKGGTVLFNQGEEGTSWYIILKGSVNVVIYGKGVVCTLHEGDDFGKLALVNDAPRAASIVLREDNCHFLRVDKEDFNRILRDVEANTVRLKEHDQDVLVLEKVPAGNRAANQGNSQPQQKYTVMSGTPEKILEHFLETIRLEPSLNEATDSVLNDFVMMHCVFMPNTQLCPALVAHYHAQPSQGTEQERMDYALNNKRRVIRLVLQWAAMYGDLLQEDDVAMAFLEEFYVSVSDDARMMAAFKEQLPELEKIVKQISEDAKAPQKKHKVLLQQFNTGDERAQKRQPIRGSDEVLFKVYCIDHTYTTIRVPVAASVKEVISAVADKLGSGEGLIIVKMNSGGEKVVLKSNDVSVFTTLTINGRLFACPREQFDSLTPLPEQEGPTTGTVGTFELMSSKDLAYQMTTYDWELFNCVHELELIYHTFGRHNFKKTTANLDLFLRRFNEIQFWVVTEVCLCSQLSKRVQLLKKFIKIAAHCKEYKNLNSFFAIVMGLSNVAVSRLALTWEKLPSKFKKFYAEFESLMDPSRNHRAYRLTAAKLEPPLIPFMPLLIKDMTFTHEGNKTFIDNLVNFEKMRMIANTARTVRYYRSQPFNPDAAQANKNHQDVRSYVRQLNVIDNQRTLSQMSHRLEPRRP
Procedure: Murine Epac2 was used as all previous structural studies were performed with it.
The activity of Epac was determined by a fluorescence assay. […] The fluorescence intensity of Rap1B•mGDP is approximately twice that of free mGDP, and thus, nucleotide exchange can be observed as a decay in fluorescence upon the addition of excess unlabeled GDP.

Epac1 = biological target: T2, Epac1 (Homo sapiens, UniProt O95398); assay: Epac activation assay, Epac1; format: biochemical; conditions: Epac1; for Rel. kmax: maximal activity relative to cAMP
T2 construct: made in house
T2 sequence (O95398 150-881 isoform O95398-3): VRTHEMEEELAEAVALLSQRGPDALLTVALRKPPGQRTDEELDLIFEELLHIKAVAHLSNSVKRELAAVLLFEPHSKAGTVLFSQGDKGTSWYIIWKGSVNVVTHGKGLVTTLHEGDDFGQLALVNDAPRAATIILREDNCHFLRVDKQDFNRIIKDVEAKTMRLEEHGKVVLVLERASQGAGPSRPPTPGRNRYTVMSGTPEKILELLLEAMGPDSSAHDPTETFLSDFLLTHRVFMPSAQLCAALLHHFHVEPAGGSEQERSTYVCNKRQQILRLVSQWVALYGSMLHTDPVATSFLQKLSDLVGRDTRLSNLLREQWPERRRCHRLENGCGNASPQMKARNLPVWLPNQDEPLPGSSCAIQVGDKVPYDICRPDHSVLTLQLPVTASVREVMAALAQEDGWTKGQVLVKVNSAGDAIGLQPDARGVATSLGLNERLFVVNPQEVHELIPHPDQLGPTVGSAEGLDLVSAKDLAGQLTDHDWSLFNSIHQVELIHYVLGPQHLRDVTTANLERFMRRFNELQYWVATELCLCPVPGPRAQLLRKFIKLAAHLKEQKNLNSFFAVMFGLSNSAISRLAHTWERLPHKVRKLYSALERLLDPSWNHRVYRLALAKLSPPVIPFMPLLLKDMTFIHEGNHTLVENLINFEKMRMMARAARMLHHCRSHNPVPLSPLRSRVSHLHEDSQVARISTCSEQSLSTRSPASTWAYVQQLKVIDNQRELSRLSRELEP

Compound | AC50 (Epac2^Δ280) [µM] | Rel. kmax (Epac2^Δ280) | AC50 (Epac1) [µM] | Rel. kmax (Epac1) | activation (Epac2^Δ280; Epac2)
COc1ccc(Sc2nc3c(N)ncnc3n2[C@@H]2O[C@@H]3COP(=O)(O)OC3[C@@H]2OC)cc1 (stereo partly drawn) [D-009, 8-pMeOPT-2′-O-Me-cAMP] | 2.8 | 0.5 | 2.3 | 2.7 | –
O[C@@H]1[C@@H]2OP(O)(=S)OC[C@H]2O[C@H]1n1cnc2cc(Cl)c(Cl)cc21 (some centres unmarked) [S-400, Sp-5,6-DCl-cBIMPS] | 0.9 | 0.8 | 14 | 1.0 | –
Nc1ncnc2c1nc([Se]Cc1ccccc1)n2[C@@H]1O[C@@H]2COP(=O)(O)O[C@H]2[C@H]1OCc1ccccc1 [D-012, 8-BnSe-2′-O-Bn-cAMP] | 4.6 | 1.0 | 38 | 0.9 | –
Nc1ncnc2c1nc(Sc1ccc(Cl)cc1)n2[C@@H]1O[C@@H]2COP([O-])(=S)O[C@H]2[C@H]1O.[Na+] (some centres unmarked) [S-210, Sp-8-pCPT-cAMPS] | 0.13 | 0.7 | 2.2 | 0.5 | –
Nc1ncnc2c1nc(Br)n2[C@@H]1O[C@@H]2CO[P@](O)(=S)O[C@H]2[C@H]1Cl [S-013, Sp-8-Br-2′-Cl-cAMPS] | 8 | 0.5 | 110 | 0.1 | –
CO[C@H]1C2OP(O)(=S)OC[C@H]2O[C@H]1n1c(Sc2ccc(Cl)cc2)nc2c(N)ncnc21 (some centres unmarked) [S-211, Sp-8-pCPT-2′-O-Me-cAMPS] | 1.4 | 0.4 | 7.3 | 1.9 | –
Nc1ncnc2c1ncn2[C@@H]1O[C@@H]2COP(=O)(O)O[C@H]2[C@H]1F [Z-002, 2′-F-cAMP] | 25 | 1.0 | 1500 | – | –
CO[C@@H]1[C@@H]2OP(=O)(O)OC[C@H]2O[C@H]1n1c(Sc2ccc(O)cc2)nc2c(N)ncnc21 [D-008, 8-pOHPT-2′-O-Me-cAMP] | 1.5 | 2.2 | 1 | 3.1 | –
Nc1ncnc2c1ncn2[C@@H]1O[C@@H]2COP(=O)(O)O[C@H]2[C@H]1OCc1ccccc1 [Z-008, 2′-O-Bn-cAMP] | 35 | 0.4 | 75 | 1.5 | –
Nc1ncnc2c1nc(SCCc1ccccc1)n2[C@@H]1O[C@@H]2CO[P@](O)(=S)O[C@H]2[C@H]1O [S-190, Sp-8-PheET-cAMPS] | 0.14 | 0.4 | 6 | 0.2 | –
Nc1ncnc2c1nc(Br)n2[C@@H]1O[C@@H]2COP(=O)(O)O[C@H]2[C@H]1F [D-004, 8-Br-2′-F-cAMP] | 14 | 1.5 | 100 | 0.4 | –
CO[C@H]1C2OP(=O)(O)OC[C@H]2O[C@H]1n1c(Br)nc2c(N)ncnc21 (stereo partly drawn) [D-005, 8-Br-2′-O-Me-cAMP] | 8 | 1.6 | 35 | 0.9 | –
Nc1ncnc2c1nc(Br)n2[C@@H]1O[C@@H]2COP(=O)(O)O[C@H]2[C@H]1Cl [D-003, 8-Br-2′-Cl-cAMP] | 11 | 0.9 | 260 | ~0.5? | –
CNc1nc2c(N)ncnc2n1[C@@H]1O[C@@H]2COP(=O)(O)O[C@H]2[C@H]1Cl [D-001, 8-MeA-2′-Cl-cAMP] | 45 | 2.2 | 330 | ~0.6? | –
Nc1ncnc2c1nc(SCc1ccccc1Cl)n2[C@@H]1O[C@@H]2CO[P@](O)(=S)O[C@H]2[C@H]1O [S-270, Sp-8-oCBnT-cAMPS] | 0.27 | 3.1 | 16 | 0.2 | –
Nc1ncnc2c1ncn2[C@@H]1O[C@@H]2COP(=O)(O)O[C@H]2[C@H]1N [Z-003, 2′-NH2-cAMP] | 9 | 0.9 | 80 | 0.8 | –

Compound | AC50 (Epac2^Δ280) [µM] | Rel. kmax (Epac2^Δ280) | AC50 (Epac1) [µM] | Rel. kmax (Epac1) | activation (Epac2^Δ280; Epac2)
CNc1nc2c(N)ncnc2n1[C@@H]1O[C@@H]2CO[P@](O)(=S)O[C@H]2[C@H]1Cl [S-033, Sp-8-MeA-2′-Cl-cAMPS] | 14 | 0.7 | 120 | 0.1 | –
Nc1ncnc2c1nc(Br)n2[C@@H]1O[C@@H]2CO[P@](O)(=S)O[C@H]2[C@H]1F [S-012, Sp-8-Br-2′-F-cAMPS] | 9.8 | 1.2 | 75 | 0.08 | –
Nc1ncnc2c1nc(NC1CCCCC1)n2[C@@H]1O[C@@H]2COP(=O)(O)O[C@H]2[C@H]1O [L-013, 8-cHA-cAMP] | 4.7 | 0.3 | 50 | 0.3 | –
Nc1ncnc2c1nc(Br)n2[C@H]1C[C@@H]2O[P@@](O)(=S)OC[C@H]2O1 [S-011, Sp-8-Br-2′dcAMPS] | 9 | 0.8 | – | – | –
CCCO[C@@H]1[C@@H]2OP(=O)(O)OC[C@H]2O[C@H]1n1cnc2c(N)ncnc21 [Z-005, 2′-O-Pr-cAMP] | 70 | 0.5 | – | – | –
Nc1ncnc2c1nc(O)n2[C@@H]1O[C@@H]2CO[P@](O)(=S)O[C@H]2[C@H]1O [S-130, Sp-8-OH-cAMPS] | 1.3 | 1.4 | 80 | 0.6 | –
Nc1ncnc2c1nc(N1CCOCC1)n2[C@@H]1O[C@@H]2COP(=O)(O)O[C@H]2[C@H]1O [L-020, 8-Morph-cAMP] | 18 | 3.8 | – | – | –
Nc1ncnc2c1nc(OCc1ccccc1)n2[C@@H]1O[C@@H]2COP(=O)(O)O[C@H]2[C@H]1O [L-023, 8-BnO-cAMP] | 1.3 | 1.6 | – | – | –
O=C(Nc1ncnc2c1ncn2[C@@H]1O[C@@H]2COP(=O)(O)O[C@H]2[C@H]1O)c1ccccc1 [N-002, N^6-Bnz-cAMP] | 2.9 | 0.1 | – | – | inability to activate Epac2
Nc1ncnc2c1nc(NCc1ccccc1)n2[C@@H]1O[C@@H]2COP(=O)(O)O[C@H]2[C@H]1O [L-014, 8-BnA-cAMP] | 1.9 | 1.5 | 30 | 0.2 | –
Nc1ncnc2c1nc(SCc1ccccc1)n2[C@H]1C[C@@H]2O[P@@](O)(=S)OC[C@H]2O1 [S-221, Sp-8-BnT-2′-dcAMPS] | 10 | 1.5 | 280 | 0.06 | –
CCNc1nc2c(N)ncnc2n1[C@@H]1O[C@@H]2CO[P@](O)(=S)O[C@H]2[C@H]1O [S-040, Sp-8-EA-cAMPS] | 1.9 | 5.4 | – | – | –
C=CCNc1nc2c(N)ncnc2n1[C@@H]1O[C@@H]2COP(=O)(O)O[C@H]2[C@H]1O [L-011, 8-AllA-cAMP] | 1.9 | 1.5 | – | – | –
CNc1nc2c(N)ncnc2n1[C@H]1C[C@@H]2O[P@@](O)(=S)OC[C@H]2O1 [S-031, Sp-8-MeA-2′-dcAMPS] | 40 | 1.7 | 320 | 0.1 | –
CCCCO[C@@H]1[C@@H]2OP(=O)(O)OC[C@H]2O[C@H]1n1cnc2c(N)ncnc21 [Z-006, 2′-O-Bu-cAMP] | 120 | 1.0 | – | – | –
Nc1ncnc2c1nc(OCc1ccccc1)n2[C@@H]1O[C@@H]2CO[P@](O)(=S)O[C@H]2[C@H]1O [S-150, Sp-8-BnO-cAMPS] | 1.3 | 4.8 | – | – | –
